Results taken from patent US20210177941A1, “COMPOSITIONS FOR CHANGING BODY COMPOSITION, METHODS OF USE, AND METHODS OF TREATMENT” (Board of Supervisors of Louisiana State University and …, priority 2014, published 2021).
Ends that are not written are not given here.

What was measured:
[1] = system: myostatin mRNA; test: myostatin mRNA expression in RMS13 cells; format: cell-based, human
Protocol: (§1) Working in concert with UPS signaling is the myostatin pathway. By binding to ActRIIB, myostatin activates type-1 activin receptor serine kinases, ALK4 or ALK5, which phosphorylate Smads 2 and −3 (key biomarkers) to exert changes in gene transcription (above figure). […] To measure pathways regulating muscle atrophy and protein syntheses, the following key mRNA biomarkers were assayed: 1) Atrophy: MSTN, Atrogin-1, MuRF1, FoxO1, FoxO3, ALK4, Smad 1, Smad 3; 2) Anabolic: IGF1R, PGC1a, PGC1b, mitochondrial-FAM.
(§2) All RMS13 cells were treated for 24 hours with single or combination doses (n=10 each group). […] However, there was a strong trend for down regulation in P/A; […] treated cells for MuRF1 (34±7 vs. 22±5, p=0.068; PBS control vs. P/A; 1 mm/0.25 μm respectively) and Smad3 (91 ±9 vs. 73±9, p=0.055; PBS control vs. P/A; 1 mm/0.25 μm respectively).
Pramlintide is chiefly used as an adjunct […] in type 1 and type 2 diabetes to help manage glycemia. The action of the two hormones complements one another to better control glucose metabolism and energy balance. We investigated whether pramlintide with or without insulin could modulate myostatin (key biomarker) mRNA. […] This negative result provides important rationale for both preclinical and clinical study designs (see below). Amylin is thought to function as a neuroendocrine hormone (Young, 1997) and has been shown over many decades to have an effect of lowering food intake. When given intracerebroventricularly (icv), amyl in reduces food intake and body weight in rodents in a dose-dependent manner (Rushing et al., 2001). […] Amylin is thought to regulate energy balance by inhibiting postprandial glucagon secretion and slowing the rate of nutrient delivery to the small intestine via an effect on gastric emptying. The rate of gastric emptying also plays a major role in blood glucose homeostasis in normal subjects by controlling the delivery of carbohydrate to the small intestine and the regulation of body weight (Reda et al., 2002). It has been proposed that amylin's effect on gastric emptying may be exerted via a central mechanism involving specific binding sites in the area postrema of the brain stem (Cline et al., 2008), and that the effect is mediated by the vagus nerve rather than a direct action on the stomach and digestion (D'Este et al., 1995; Maev and Dicheva, 2003). We have previously shown that the use of modified-pharmaceutical grade cellulose is able to dramatically slow the rate of gastric emptying and improve the lean-to-fat ratio in mice (Islam et al., 2012).
Calcitonin can be used therapeutically for the treatment of hypercalcemia or osteoporosis. Both calcitonin and amylin bind the same trimetric-calcitonin-ramp-receptor. An increased incidence of pituitary adenomas has been reported in rats given synthetic salmon calcitonin for 1 year. Calcitonin may be used diagnostically as a tumor marker for medullary thyroid cancer; also, elevated levels after surgery may indicate recurrence. Calcitonin may even be assayed in biopsy samples from suspicious lesions (e.g., lymph nodes that are swollen) to establish whether they are a metastasis of the original cancer (Bruera and Fainsinger, 1997; Busquets et al., 2012b). We next examined the dose-dependence relationship between the concentration of calcitonin and myostatin mRNA expression.

[2] = system: FoxO3 mRNA; test: FoxO3 mRNA expression in RMS13 cells; format: cell-based, human; conditions: 24 h; pramlintide 1 mm, albuterol 0.25 mm, P/A 1 mm/0.25 μm
Protocol: as §1, §2

[3] = system: PGC1a mRNA; test: PGC1a mRNA expression in RMS13 cells; format: cell-based, human; conditions: 24 h; pramlintide 1 mm, albuterol 0.25 mm, P/A 1 mm/0.25 μm
Protocol: as §1, §2

[4] = system: IGF1R mRNA; test: IGF1R mRNA expression in RMS13 cells; format: cell-based, human; conditions: 24 h; pramlintide 1 mm, albuterol 0.25 mm, P/A 1 mm/0.25 μm
Protocol: as §1, §2

[5] = system: Atrogin-1, MuRF1, FoxO1, ALK4, Smad 1, Smad 3, PGC1b and TFAM mRNA; test: myoblast transcriptome biomarker panel in RMS13 cells; format: cell-based, human; conditions: 24 h; albuterol 0.25 mm, pramlintide 1 mm, P/A 1 mm/0.25 μm
Protocol: as §1, §2

[6] = In Vivo Study 1: body weight and body composition by NMR, 8 weeks; set-up: species or system B6 mice; conditions: for muscle gain and body fat reduction: monotherapy: pramlintide 30 and 60 mg/kg/day, albuterol 24 mg/day
Protocol: Based on our in vitro experiments, we hypothesized that we could synergize muscle gain and improved biology with a combination of low doses of amylin (or agonist) and albuterol (or agonist). This study determined the effect of daily peripheral administration of pramlintide for 2-months on body weight, body composition and food intake in healthy, elderly mice.
Murine subjects were divided into seven treatment groups (total n=12): Group 1) SC […] vehicle (PBS); Group 2) SC 15 mg/kg/mouse of pramlintide; Group 3) SC 30 mg/kg/mouse of pramlintide; Group 4) SC 60 mg/kg/mouse of pramlintide; […]); Group 6) Albuterol 0.250 mg/kg. […]
The mice were housed in single cages with a 12:12 light cycle, and allowed ad libitum access to food and water throughout the experiment. On day-1 food was weighed and an amount sufficient to last weekly intervals was provided. For the first two-weeks, food intake and body weight were monitored daily and thereafter biweekly for the remainder of the experiment. Body composition by NMR-spectroscopy was the primary endpoint, measured at Day-1 and at the end of the protocol (8-weeks). At Day-5, the mice were randomized to treatment and control groups, such that each group had the same mean body weight. Mice were allowed to acclimate for 5-days to being the sole mouse in the cage. Each day mice were dosed 1 hour after lights on, and the 2nd dosing two hours prior to lights out when mice initiate feeding. Pramlintide was taken directly from the FDA-approved Symlin drug (pramlintide acetate) obtained through the Pennington Biomedical Research Center (PBRC) pharmacy. Final injection volumes were […] for vehicle or drugs. Symlin was supplied as a sterile drug at 0.6 mg/ml. All doses were adjusted according to this concentration.
Food intake in grams was measured manually each 24 hours. Body Composition was determined via NMR using a Bruker mini-spec system designed for rat or mouse. Animals were transported in microisolater covered cages to the designated room containing the NMR. […]

[7] = 7-week placebo controlled study in young, healthy BL-male mice; format: in vivo; conditions: for lean body mass (LBM): all treatment-arms (Gr 2-7); for bodyweight from baseline and relative to placebo control: pramlintide 30 and 60 mg/kg (Gr 3, 4), Salbutamol 24 mg (Gr 5), combinations (Gr 6, 7)
Protocol: In a recent pharmacology assessment in young, healthy BL-male mice, we completed a 7-week placebo controlled (Gr 1) study with treatment-arms that included the use of pramlintide alone at low (Gr 2. 15 mg/kg); mid (Gr 3. 30 mg/kg) and high (Gr 4. 60 mg/kg) or Salbutamol alone (Gr 5. 24 mg) or combined with Pramlintide (Gr 6. 15 mg/kg +12 mg of Salbutamol; Gr 7. 30 mg/kg +12 mg of Salbutamol).

[8] = system: mammalian target of rapamycin (mTOR); test: mTOR activation in human myoblast RMS13 cells; format: cell-based; conditions: pramlintide alone at 1 and 5 mm, 24 h, both p<0.05
Source text: We first examined the association between a pramlintide and albuterol formulation (single and combination dosing) on the activity of the mammalian target of rapamycin (mTOR) in a human myoblast cell model derived from RMS13 cells (purchased from ATCC, Manassas, Va., USA). mTOR is a highly conserved kinase that exists in two functional complexes, TOR complex 1 (TORC1) and TOR complex 2 (TORC2), that are conserved from yeast to mammals. Given its high conservation across species, mTOR serves as a key biomarker for protein synthesis. mTOR (TORC1 and TORC 2) is a master kinase that is crucial for cell growth and is a chief enzyme in protein synthesis (Otulakowski et al., 2007). Determining optimal ratios and concentrations of each drug (in single or combination) was an important first step to guide the mechanism of action biomarker studies. This initial study was undertaken for 24 and 48 hours; only the 24-hour results are shown (n=6 each group).

[9] = system: myostatin secretion; test: myostatin secretion into RMS13 myoblast culture media; format: cell-based, human; conditions: pramlintide 1 mm (p=0.061); P/A 1 mm/0.25 mm (p<0.05, greatest suppression)
Source text: Myostatin's main sites of actions are muscle and bone in a catabolic fashion. Both IGF1 and amylin have roles in regulating osteoblast-bone proliferation (Cornish et al., 2004; Cornish and Naot, 2002) and muscle mass. […] Although not intending to be bound by theory, we hypothesize that amylin alone and in combination with albuterol is able to directly suppress myostatin secretion in myoblasts.

[10] = system: human myoblast; test: human myoblast treated 24 h with pramlintide, biomarkers; format: cell-based; conditions: 24 h pramlintide
Source text: Although not intending to be bound by theory, we hypothesize the amylin pathway has a role in the regulation of muscle mass in mammals and the use of pramlintide will result in improved body composition and increase muscle mass in healthy humans by lowering the production of myostatin and increasing protein synthesis via mTOR activation.

[11] = in vivo; cited from earlier work
[12] = 24 h, pramlintide 1 mm, albuterol 0.25 mm, P/A 1 mm/0.25 μm
[13] = calcitonin dose-dependence, pramlintide 5 mm, p<0.05

Molecule | myostatin mRNA expression [1, 12] | FoxO3 mRNA expression [2] | PGC1a mRNA expression [3] | IGF1R mRNA expression [4] | Atrogin-1, MuRF1, FoxO1, ALK4, Smad 1, Smad 3, PGC1b and TFAM mRNA [5] | muscle gain and body fat reduction [6] | lean body mass (LBM) [7] | bodyweight from baseline and relative to placebo control [7] | myostatin mRNA expression [1, 13] | myostatin mRNA, pramlintide with or without insulin ([1]; co-incubation of insulin with pramlintide) | mTOR activation [8] | myostatin secretion into myoblast culture media [9] | drop in body weight within the first week ([6]; pramlintide 60 mg/kg/day (Group 4)) [%] | myostatin and FoxO-1/-3 mRNA [10] | pro-anabolic targets (PGC1a, calcineurin mRNA and AkT and mTOR-activity) [10] | T-1/2-life [11] [min]
CC(C)(C)NCC(O)c1ccc(O)c(CO)c1 (stereo not shown) [albuterol] | no effect | down regulated | up regulated | up regulated | no change | Statistical improvements in muscle gain and body fat reduction | significantly increased | significant increases in bodyweight |  |  |  |  |  |  |  | 
calcitonin (CGNLSTCMLGTYTQDFNKFHTFPQTAIGVGAP; ends and bridges not checked; cysteine pairing not given here; UniProt P01258 85-116, looked up) |  |  |  |  |  |  |  |  | did not modulate myostatin mRNA |  |  |  |  |  |  | 
insulin |  |  |  |  |  |  |  |  |  | no additive benefit |  |  |  |  |  | 
pramlintide acetate | significantly lowered | significantly lowered | up regulated | up regulated | no change | Statistical improvements in muscle gain and body fat reduction | significantly increased | significant increases in bodyweight | able to lower myostatin mRNA |  | induced mTOR activation | lowered myostatin secretion | −5 | down regulation of myostatin | elevation of pro-anabolic targets | ~45
